Among the data in ChEMBL document CHEMBL1909046, “DrugMatrix in vitro pharmacology data” are IC50 and Ki values, retold here.

In one experiment the target is T1, Adenosine receptor A1 (Homo sapiens, UniProt P30542).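 Also: radioligand binding assay at the adenosine A1 receptor, with DPCPX serving as the labelled ligand; in other assays of this panel Not Active means under 50% inhibition at 10 µM.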
T1 sequence (P30542 whole entry): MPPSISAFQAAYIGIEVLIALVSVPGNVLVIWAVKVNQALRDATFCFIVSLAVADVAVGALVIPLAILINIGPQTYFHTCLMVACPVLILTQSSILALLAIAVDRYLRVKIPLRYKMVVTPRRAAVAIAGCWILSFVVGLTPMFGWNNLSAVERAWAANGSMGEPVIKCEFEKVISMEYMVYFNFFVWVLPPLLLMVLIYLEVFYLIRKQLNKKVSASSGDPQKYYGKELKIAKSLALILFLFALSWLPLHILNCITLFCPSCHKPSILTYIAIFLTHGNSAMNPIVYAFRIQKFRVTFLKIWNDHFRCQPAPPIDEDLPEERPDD
In kind it is cell membranes, CHO, Membrane. The note with it: cho.

The target of experiment [1] is T2, 5-hydroxytryptamine receptor 1A (Rattus norvegicus, UniProt P19327). Also: in other assays of this panel Not Active means under 50% inhibition at 10 µM.
T2 sequence (P19327 whole entry): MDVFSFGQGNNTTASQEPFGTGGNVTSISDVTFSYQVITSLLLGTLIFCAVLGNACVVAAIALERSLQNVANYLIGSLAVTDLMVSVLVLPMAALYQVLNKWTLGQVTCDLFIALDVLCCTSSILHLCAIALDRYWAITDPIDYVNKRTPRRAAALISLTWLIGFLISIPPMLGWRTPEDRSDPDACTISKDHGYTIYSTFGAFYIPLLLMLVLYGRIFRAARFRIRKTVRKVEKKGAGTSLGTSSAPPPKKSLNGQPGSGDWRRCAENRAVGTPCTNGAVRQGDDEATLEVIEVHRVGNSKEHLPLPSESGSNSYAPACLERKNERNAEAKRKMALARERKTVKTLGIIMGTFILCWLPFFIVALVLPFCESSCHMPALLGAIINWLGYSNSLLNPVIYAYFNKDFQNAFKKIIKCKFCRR
In kind it is cell membranes, CHO-K1, Membrane.

Experiment [2] concerns the target T3, Neuropeptide Y receptor type 1 (Homo sapiens, UniProt P25929). Also: in other assays of this panel Not Active means under 50% inhibition at 10 µM.
T3 sequence (P25929 whole entry): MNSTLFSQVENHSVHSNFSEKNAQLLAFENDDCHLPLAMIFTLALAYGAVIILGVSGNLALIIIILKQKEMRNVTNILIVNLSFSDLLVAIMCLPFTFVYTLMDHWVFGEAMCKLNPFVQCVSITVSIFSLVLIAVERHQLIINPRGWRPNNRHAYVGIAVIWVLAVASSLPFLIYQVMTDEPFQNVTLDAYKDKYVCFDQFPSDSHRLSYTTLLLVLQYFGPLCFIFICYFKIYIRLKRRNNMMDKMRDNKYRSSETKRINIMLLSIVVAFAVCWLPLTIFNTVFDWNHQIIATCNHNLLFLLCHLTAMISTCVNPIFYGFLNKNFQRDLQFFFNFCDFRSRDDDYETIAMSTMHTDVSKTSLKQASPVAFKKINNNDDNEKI
The class given is cell membranes, Membrane. The note with it: sk-n-mc.

For experiment [3], the target named is Tyrosine-protein kinase Lck (Homo sapiens, UniProt P06239). Briefly: DRUGMATRIX: Protein Tyrosine Kinase, LCK enzyme inhibition (substrate: Poly(Glu:Tyr)). In kind it is cell-based, Insect cells. The note with it: Not Active = under 50% inhibition at 10 µM.
Experiment [4] has as its target 5-hydroxytryptamine receptor 6 (Homo sapiens, UniProt P50406). The class given is cell membranes, HeLa, Membrane. Also: in other assays of this panel Not Active means under 50% inhibition at 10 µM.

Each structure is given as a SMILES string.

For orientation: IC50 means the concentration needed to halve the response being measured. In general, Ki refers to a dissociation constant, usually derived from enzyme kinetics or from competition with a known ligand.

Chain of Tyrosine-protein kinase Lck (P06239 whole entry): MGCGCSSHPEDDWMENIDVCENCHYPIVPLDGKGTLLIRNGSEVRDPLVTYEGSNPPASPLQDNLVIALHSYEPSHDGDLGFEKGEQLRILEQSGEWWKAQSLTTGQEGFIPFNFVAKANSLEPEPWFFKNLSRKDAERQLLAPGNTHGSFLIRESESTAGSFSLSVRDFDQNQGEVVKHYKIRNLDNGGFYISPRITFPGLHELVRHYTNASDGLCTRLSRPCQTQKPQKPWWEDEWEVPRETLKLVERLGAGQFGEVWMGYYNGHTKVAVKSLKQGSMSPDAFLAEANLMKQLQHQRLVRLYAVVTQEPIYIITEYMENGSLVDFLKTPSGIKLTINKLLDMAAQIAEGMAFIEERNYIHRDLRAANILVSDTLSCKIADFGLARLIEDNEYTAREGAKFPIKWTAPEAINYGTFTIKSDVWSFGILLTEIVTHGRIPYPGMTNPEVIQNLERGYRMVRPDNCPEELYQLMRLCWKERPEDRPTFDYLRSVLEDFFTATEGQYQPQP
Chain of 5-hydroxytryptamine receptor 6 (P50406 whole entry): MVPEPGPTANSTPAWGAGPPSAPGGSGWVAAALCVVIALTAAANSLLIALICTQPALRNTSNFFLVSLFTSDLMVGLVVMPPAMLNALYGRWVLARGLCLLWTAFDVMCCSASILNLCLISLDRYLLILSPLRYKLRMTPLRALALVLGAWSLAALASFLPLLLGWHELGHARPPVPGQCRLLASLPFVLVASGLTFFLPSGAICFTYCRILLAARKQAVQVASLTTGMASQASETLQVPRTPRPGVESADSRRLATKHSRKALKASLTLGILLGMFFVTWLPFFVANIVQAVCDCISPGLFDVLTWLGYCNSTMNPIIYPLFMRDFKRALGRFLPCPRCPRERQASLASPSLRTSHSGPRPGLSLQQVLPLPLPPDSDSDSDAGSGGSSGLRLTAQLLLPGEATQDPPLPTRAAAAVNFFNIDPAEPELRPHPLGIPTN

As to `CCOc1nc2cccc(C(=O)O)c2n1Cc1ccc(-c2ccccc2-c2nnn[nH]2)cc1`, the IC50 entry (at Adenosine receptor A1; in experiment [1] (cho-k1); in experiment [2]; in experiment [3] (insect cells); in experiment [4] (hela)) was “Not Active” in each case.

With `O=C(O)CCCc1cccs1`, the IC50 result (on Adenosine receptor A1; in experiment [1] (cho-k1); in experiment [2]; in experiment [3] (insect cells); in experiment [4] (hela)) was “Not Active” in each case.

As for `COc1ccccc1N`, the concentration for half-maximal inhibition (IC50) entry (on Adenosine receptor A1; in experiment [1] (cho-k1); in experiment [2]; in experiment [3] (insect cells); in experiment [4] (hela)) was “Not Active” throughout.

Turning to `O=C(c1ccccc1F)N1CCC(Cc2ccccc2)CC1`, the IC50 result (on Adenosine receptor A1; in experiment [1] (cho-k1); in experiment [2]; in experiment [3] (insect cells); in experiment [4] (hela)) was “Not Active” each time.

On to `Cc1c(O)cccc1C(=O)N[C@@H](CSc1ccccc1)[C@H](O)CN1C[C@H]2CCCC[C@H]2C[C@H]1C(=O)NC(C)(C)C`, for which the 50% inhibitory concentration (IC50) entry against Adenosine receptor A1 was “Not Active”; in experiment [1] (cho-k1) it was “Not Active”; in experiment [2] it was “Not Active”; in experiment [3] (read-out: IC50), 79.2 µM; in experiment [4] (hela), “Not Active”.

`CC(O)COC[C@H]1O[C@@H]2O[C@H]3[C@H](O)[C@@H](O)[C@@H](O[C@H]4[C@H](O)[C@@H](O)[C@@H](O[C@H]5[C@H](O)[C@@H](O)[C@@H](O[C@H]6[C@H](O)[C@@H](O)[C@@H](O[C@H]7[C@H](O)[C@@H](O)[C@@H](O[C@H]8[C@H](O)[C@@H](O)[C@@H](O[C@H]1[C@H](O)[C@H]2O)O[C@@H]8COCC(C)O)O[C@@H]7COCC(C)O)O[C@@H]6COCC(C)O)O[C@@H]5COCC(C)O)O[C@@H]4COCC(C)O)O[C@@H]3COCC(C)O` (stereo partly drawn) [2-HYDROXYPROPYL-BETA-CYCLODEXTRIN]: the concentration for half-maximal inhibition (IC50) entry (at Adenosine receptor A1; in experiment [1] (cho-k1); in experiment [2]; in experiment [3] (insect cells); in experiment [4] (hela)) was “Not Active” in each case.

Consider `NC(=O)c1cccc(N)c1` [3-AMINOBENZAMIDE], for which the IC50 entry (on Adenosine receptor A1; in experiment [1] (cho-k1); in experiment [2]; in experiment [3] (insect cells); in experiment [4] (hela)) was “Not Active” in each case.

Turning to `C[C@H]1O[C@H](O[C@H]2[C@H](O)[C@@H](O)[C@@H](O[C@H]3[C@H](O)[C@@H](O)C(O)O[C@@H]3CO)O[C@@H]2CO)[C@H](O)[C@@H](O)[C@@H]1N[C@H]1C=C(CO)[C@@H](O)[C@H](O)[C@H]1O` (stereo not given in full) [ACARBOSE], the IC50 result (on Adenosine receptor A1; in experiment [1] (cho-k1); in experiment [2]; in experiment [3] (insect cells); in experiment [4] (hela)) was “Not Active” each time.

As for `CC[C@H]1[C@@H]2C[C@H]3[C@@H]4N(C)c5ccccc5[C@]45C[C@@H]([C@@H]2[C@H]5O)N3[C@@H]1O` [AJMALINE], the half-maximal inhibitory concentration (IC50) entry (against Adenosine receptor A1; in experiment [1] (cho-k1); in experiment [2]; in experiment [3] (insect cells); in experiment [4] (hela)) was “Not Active” throughout.

Take `NC12CC3CC(CC(C3)C1)C2` [AMANTADINE]: the IC50 result (against Adenosine receptor A1; in experiment [1] (cho-k1); in experiment [2]; in experiment [3] (insect cells); in experiment [4] (hela)) was “Not Active” in each case.

Consider `NCCCNCCSP(=O)(O)O` [AMIFOSTINE], for which the IC50 result (on Adenosine receptor A1; in experiment [1] (cho-k1); in experiment [2]; in experiment [3] (insect cells); in experiment [4] (hela)) was “Not Active” in each case.

With `CN(C)CCC=C1c2ccccc2CCc2ccccc21` [AMITRIPTYLINE], the IC50 entry against Adenosine receptor A1 was “Not Active”; in experiment [1] (read-out: IC50) it was 2000 nM; in experiment [2] it was “Not Active”; in experiment [3] (insect cells), “Not Active”; in experiment [4] (read-out: IC50) it was 140 nM. Moreover, the inhibition constant (Ki) in experiment [1] (read-out: Ki) came out at 1140 nM.

For the molecule `CC(=O)Oc1ccccc1C(=O)O` [ASPIRIN], the half-inhibitory concentration (IC50) result (against Adenosine receptor A1; in experiment [1] (cho-k1); in experiment [2]; in experiment [3] (insect cells); in experiment [4] (hela)) was “Not Active” in each case.

In the case of `CC(C)c1c(C(=O)Nc2ccccc2)c(-c2ccccc2)c(-c2ccc(F)cc2)n1CC[C@@H](O)C[C@@H](O)CC(=O)O` [ATORVASTATIN], the half-inhibitory concentration (IC50) entry (against Adenosine receptor A1; in experiment [1] (cho-k1); in experiment [2]; in experiment [3] (insect cells); in experiment [4] (hela)) was “Not Active” each time.

`CC(=O)OC[C@H]1O[C@@H](n2ncc(=O)[nH]c2=O)[C@H](OC(C)=O)[C@@H]1OC(C)=O` [AZARIBINE]: the IC50 result (at Adenosine receptor A1; in experiment [1] (cho-k1); in experiment [2]; in experiment [3] (insect cells); in experiment [4] (hela)) was “Not Active” each time.

Consider `C[C@H]1[C@H](NC(=O)/C(=N\OC(C)(C)C(=O)O)c2csc(N)n2)C(=O)N1S(=O)(=O)O` [AZTREONAM], for which the half-maximal inhibitory concentration (IC50) result (against Adenosine receptor A1; in experiment [1] (cho-k1); in experiment [2]; in experiment [3] (insect cells); in experiment [4] (hela)) was “Not Active” each time.

Take `O=C(O)CCNC(=O)c1ccc(/N=N/c2ccc(O)c(C(=O)O)c2)cc1` [BALSALAZIDE]: the half-maximal inhibitory concentration (IC50) result (at Adenosine receptor A1; in experiment [1] (cho-k1); in experiment [2]; in experiment [3] (insect cells); in experiment [4] (hela)) was “Not Active” each time.

Turning to `COc1cc(OC)c(C(=O)CCCN2CCCC2)c(OC)c1` [BUFLOMEDIL], the 50% inhibitory concentration (IC50) result (against Adenosine receptor A1; in experiment [1] (cho-k1); in experiment [2]; in experiment [3] (insect cells); in experiment [4] (hela)) was “Not Active” throughout.

Regarding `Cn1c(=O)c2c(ncn2C)n(C)c1=O` [CAFFEINE], the IC50 result in experiment [1] (cho-k1), in experiment [2], in experiment [3] (insect cells) and in experiment [4] (hela) was “Not Active” throughout.

Take `ClC(Cl)(Cl)Cl` [CARBON TETRACHLORIDE]: the IC50 entry (at Adenosine receptor A1; in experiment [1] (cho-k1); in experiment [2]; in experiment [3] (insect cells); in experiment [4] (hela)) was “Not Active” each time.

As for `CO/N=C(\C(=O)N[C@@H]1C(=O)N2C(C(=O)O)=C(COC(C)=O)CS[C@H]12)c1csc(N)n1` [CEFOTAXIME], the IC50 result (at Adenosine receptor A1; in experiment [1] (cho-k1); in experiment [2]; in experiment [3] (insect cells); in experiment [4] (hela)) was “Not Active” each time.

Turning to `CNC1=Nc2ccc(Cl)cc2C(c2ccccc2)=[N+]([O-])C1` [CHLORDIAZEPOXIDE], the half-inhibitory concentration (IC50) result (at Adenosine receptor A1; in experiment [1] (cho-k1); in experiment [2]; in experiment [3] (insect cells); in experiment [4] (hela)) was “Not Active” throughout.

As for `Cc1cc(O)cc(C)c1Cl` [CHLOROXYLENOL], the IC50 result (on Adenosine receptor A1; in experiment [1] (cho-k1); in experiment [2]; in experiment [3] (insect cells); in experiment [4] (hela)) was “Not Active” each time.

On to `CCCNC(=O)NS(=O)(=O)c1ccc(Cl)cc1` [CHLORPROPAMIDE], for which the half-inhibitory concentration (IC50) result (against Adenosine receptor A1; in experiment [1] (cho-k1); in experiment [2]; in experiment [3] (insect cells); in experiment [4] (hela)) was “Not Active” throughout.

As for `NS(=O)(=O)c1cc(C2(O)NC(=O)c3ccccc32)ccc1Cl` (stereo not given) [CHLORTHALIDONE], the IC50 entry (against Adenosine receptor A1; in experiment [1] (cho-k1); in experiment [2]; in experiment [3] (insect cells); in experiment [4] (hela)) was “Not Active” in each case.

Regarding `O=C(O)CC(O)(CC(=O)O)C(=O)O` [CITRIC ACID], the half-maximal inhibitory concentration (IC50) result (on Adenosine receptor A1; in experiment [1] (cho-k1); in experiment [2]; in experiment [3] (insect cells); in experiment [4] (hela)) was “Not Active” throughout.

On to `CC(C)NCC(O)c1ccccc1Cl` (stereo not given) [CLORPRENALINE], for which the IC50 result (against Adenosine receptor A1; in experiment [1] (cho-k1); in experiment [2]; in experiment [3] (insect cells); in experiment [4] (hela)) was “Not Active” each time.
